In patent publication US20130324493A1, “COMPOSITIONS COMPRISING NINGNANMYCIN AND USES THEREFOR” (North Carolina State University, priority 2012, published 2013):
In brackets after ≈: the same amount, converted by molar mass. Like-named read-outs stand apart in the source and are kept apart here.

Tests used:
honey bee = conditions: cited from earlier work
Oncorhynchus mykiss = conditions: cited from earlier work
rat [1] = conditions: Trinity 1.69SC MSDS; cited from earlier work
rabbit [2] = conditions: in vivo; cited from earlier work
rat [3] = conditions: cited from earlier work
green algae = conditions: in vivo; cited from earlier work
guinea pig = conditions: in vivo; cited from earlier work
Colletotrichum cereale = experiment: In vitro sensitivity assay (radial growth on fungicide-amended PDA); format: cell-based
Method: (§1) Three isolates of S. homoeocarpa and two isolates of C. cereale were selected to evaluate ningnanmycin (Ningnanmycin 10WP, Deqiang Biological Co., LTD. Harbin, Helongjiang, China) in vitro activities using 5 three-fold dilutions from 0.81 to 0.01 μg a.i./ml. […] Based on preliminary experiments, five dilutions of triticonazole were used, ranging from 0.81 to 0.01 μg a.i/ml for isolates of S. homoeocarpa and from 6.25 to 0.01 μg a.i./ml for isolates of C. cereale. All isolates were prepared for long-term storage on pieces of dried filter paper maintained at −80° C. Filter paper sections containing each isolate were removed from −80° C. storage and placed on PDA amended with 0.05 μg/ml each of chloramphenicol, streptomycin, and tetracycline (PDA+++). After 3 days, mycelium-containing plugs (1×1 cm) were transferred to water agar for another 2 days. Then, water agar plugs (0.45 cm diameter) were cut from the periphery of the colony using a cork borer and placed on the center of Petri dishes containing non-amended PDA and PDA amended with the serial concentrations of each fungicide with three replicates per isolate. Radial growth was measured after three days (72 h) incubation at room temperature for isolates of S. homoeocarpa and seven days for isolates of C. cereale. Relative Growth (RG) was calculated by dividing colony diameter on amended PDA by that on the non-amended PDA. EC50 values were then calculated using the method described by Secor et al. (Fungicide resistance assays for fungal plant pathogens. Methods Mol Biol. 835:385-392, 2012). The in vitro sensitivity assay repeated twice and EC50 value of each isolates was determined as the mean of EC50 values from two assays.

Sclerotinia homoeocarpa = experiment: as above; format: cell-based; conditions: Clarireedia homoeocarpa
Method: as §1

rabbit [4] = conditions: in vivo; cited from earlier work; remark: listed apart in the source
anthracnose (C. cereale) = experiment: Field efficacy test, control of anthracnose on putting green turf; format: in vivo, 'Dominant Plus' creeping bentgrass; conditions: Trinity 1.69SC 0.32 ml/m^2, 14 d interval; for Turf quality: 1-to-9 scale (9 = best), anthracnose trial
Lepomis macrochirus = conditions: cited from earlier work

For `CC1(C)CCC(=Cc2ccc(Cl)cc2)C1(O)Cn1cncn1` (stereo not shown) [triticonazole, reference compound], which “Non-mammals, honey bee” value (honey bee) is on record?
Its value is 1.87 μg/bee.

What about the “Fish LC50 (96 h)” value (Oncorhynchus mykiss) of the same compound?
The value was >3.6 µg/mL.

What about the “Acute toxicity Oral LD50” value (rat [1]) of the same compound?
Its value is >5,000 mg/kg.

What about the Irritation to skin (rabbit [2]) of the same compound?
The Irritation to skin was “moderately irritating”.

And the “Acute toxicity Dermal LD50” value (rat [3])?
Its value is >2,000/mg/kg.

And the “Aquatic plants EC50” value (green algae)?
The value was >1 mg/L (96 h).

What about the Sensitization (guinea pig) of the same compound?
Its Sensitization is “no”.

What about the EC50 (Colletotrichum cereale; 168 h, isolate ABR1, radial growth after seven days, mean of two assays, read-out: EC50) of the same compound?
The EC50 was 1.24 µg/mL (≈ 3.9 µM).

And the EC50 (Colletotrichum cereale; 168 h, isolate ABR12, radial growth after seven days, mean of two assays, read-out: EC50)?
The EC50 was 0.72 µg/mL (≈ 2.27 µM).

And the EC50 (Colletotrichum cereale; mean of two isolates, read-out: mean EC50)?
The EC50 was 0.98 µg/mL (≈ 3.08 µM).

And the EC50 (Sclerotinia homoeocarpa; 72 h, isolate 761SHME, radial growth after 72 h, mean of two assays, Ningnanmycin 10WP / technical triticonazole, μg a.i./ml, read-out: EC50)?
The EC50 was 0.05 µg/mL (≈ 0.157 µM).

And the EC50 (Sclerotinia homoeocarpa; 72 h, isolate LWC 27, radial growth after 72 h, mean of two assays, read-out: EC50)?
Its EC50 is 0.06 µg/mL (≈ 0.189 µM).

What about the EC50 (Sclerotinia homoeocarpa; 72 h, isolate PST4, radial growth after 72 h, mean of two assays, read-out: EC50) of the same compound?
The EC50 was 0.03 µg/mL (≈ 0.0944 µM).

What about the EC50 (Sclerotinia homoeocarpa; mean of three isolates, read-out: mean EC50) of the same compound?
Its EC50 is 0.05 µg/mL (≈ 0.157 µM).

And the Irritation to eye (rabbit [4])?
The Irritation to eye was “slightly irritating”.

What about the Turf quality (anthracnose (C. cereale); Aug. 8, 2010) of the same compound?
Its Turf quality is 5.

And the Turf quality (anthracnose (C. cereale); Aug. 15, 2010)?
Its Turf quality is 5.

What about the “Anthracnose severity (%)” value (anthracnose (C. cereale); Aug. 1, 2011) of the same compound?
The value was 17%.

What about the “Anthracnose severity (%)” value (anthracnose (C. cereale); Aug. 8, 2011) of the same compound?
Its value is 3%.

And the “Anthracnose severity (%)” value (anthracnose (C. cereale); Aug. 15, 2011)?
Its value is 12%.

What about the “Anthracnose severity (%)” value (anthracnose (C. cereale); Jul. 25, 2011) of the same compound?
Its value is 16%.

And the “Fish LC50 (96 h)” value (Lepomis macrochirus)?
Its value is >8.9 mg/L (Lepomis.
